Source: the supplement of paper PMC8617591

Assays:
[1] = test system: Mycobacterium tuberculosis Erdman (autoluminescent); assay: total FIC50 (Loewe) at 50% inhibition, three-drug combination (log2); higher = more antagonistic
Method: (§1)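 DiaMOND equipotent three-drug combination dose responses (10 doses, 1.5- or 2-fold spacing, centred on IC90) against autoluminescent M. tuberculosis Erdman in 8 in vitro models. Read-out is OD600, or luminescence for the intracellular and dormancy models, normalised to untreated wells. Hill-fit Einf, AUC25 and GRinf are potency metrics; FIC50 and FIC90 are total Loewe fractional inhibitory concentrations as log2 (negative = synergy).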

[2] = test system: Mycobacterium tuberculosis Erdman (autoluminescent); assay: total FIC90 (Loewe) at 90% inhibition, three-drug combination (log2); higher = more antagonistic
Method: as §1

[3] = test system: Mycobacterium tuberculosis Erdman (autoluminescent); assay: Einf, fitted maximum growth inhibition of three-drug combination (fraction); higher = stronger maximal inhibition
Method: as §1

[4] = test system: Mycobacterium tuberculosis Erdman (autoluminescent); assay: AUC25, normalised area under dose response up to IC25 (three-drug combination) (fraction (0-1)); higher = more potent at low dose
Method: as §1

[5] = test system: Mycobacterium tuberculosis Erdman (autoluminescent); assay: GRinf, maximum normalised growth rate inhibition (three-drug combination) (unitless (-1 to 1)); higher = less effect (negative = killing)
Method: as §1

COc1nc2ccc(Br)cc2cc1[C@@H](c1ccccc1)[C@@](O)(CCN(C)C)c1cccc2ccccc12 [bedaquiline] + CC(=O)NC[C@H]1CN(c2ccc(N3CCOCC3)c(F)c2)C(=O)O1 [linezolid] + CO[C@H]1/C=C/O[C@@]2(C)Oc3c(C)c(O)c4c(O)c(c(/C=N/N5CCN(C6CCCC6)CC5)c(O)c4c3C2=O)NC(=O)/C(C)=C\C=C\[C@H](C)[C@H](O)[C@@H](C)[C@@H](O)[C@@H](C)[C@H](OC(C)=O)[C@@H]1C [rifapentine]
Details | AUC25, [4] | Einf, [3] | GRinf, [5] | total FIC50, [1] | total FIC90, [2]
in vitro model: acidic pH 5.7, time point: constant (~7 days, model-specific) | 0.108 | 0.926 | -0.244 | 0.654 | –
in vitro model: acidic pH 5.7, time point: terminal (~4-5 doublings, model-specific) | 0.0848 | 0.986 | -0.26 | 0.615 | 0.662
in vitro model: intracellular J774, time point: constant = terminal | – | 0.933 | -0.098 | – | -0.0532

Details | AUC25, [4] | Einf, [3] | GRinf, [5] | total FIC50, [1] | total FIC90, [2]
in vitro model: butyrate, time point: constant (~7 days, model-specific) | 0.0812 | 0.921 | -0.0254 | 0.437 | -0.119
in vitro model: butyrate, time point: terminal (~4-5 doublings, model-specific) | 0.0511 | 0.948 | -0.00583 | 0.274 | -0.145
in vitro model: cholesterol 0.05 mM, time point: constant (~7 days, model-specific) | 0.127 | 0.761 | -0.281 | -0.0889 | –
in vitro model: cholesterol 0.05 mM, time point: terminal (~4-5 doublings, model-specific) | 0.121 | 0.93 | -0.354 | 0.0726 | 0.0812
in vitro model: cholesterol-high 0.2 mM, time point: constant (~7 days, model-specific) | 0.0873 | 0.998 | -0.89 | 0.58 | 1.04
in vitro model: cholesterol-high 0.2 mM, time point: terminal (~4-5 doublings, model-specific) | 0.1 | 1 | -0.637 | 0.404 | 0.653
in vitro model: dormancy (butyrate + nitrate, low O2), time point: constant (~7 days, model-specific) | 0.0901 | 0.933 | 0.0917 | 0.915 | 1.57
in vitro model: dormancy (butyrate + nitrate, low O2), time point: terminal (~4-5 doublings, model-specific) | 0.0384 | 0.985 | -0.095 | 0.965 | 0.698
in vitro model: standard 7H9 glycerol, time point: constant = terminal | 0.0734 | 0.939 | -0.014 | 0.253 | 0.00862
in vitro model: valerate, time point: constant (~7 days, model-specific) | 0.0755 | 0.899 | -0.197 | 0.659 | –
in vitro model: valerate, time point: terminal (~4-5 doublings, model-specific) | 0.0423 | 0.945 | -0.0248 | 0.581 | 0.338

COc1nc2ccc(Br)cc2cc1[C@@H](c1ccccc1)[C@@](O)(CCN(C)C)c1cccc2ccccc12 [bedaquiline] + CC(=O)NC[C@H]1CN(c2ccc(N3CCOCC3)c(F)c2)C(=O)O1 [linezolid] + CO[C@H]1/C=C/O[C@@]2(C)Oc3c(C)c(O)c4c(O)c(c(/C=N/N5CCN(C)CC5)c(O)c4c3C2=O)NC(=O)/C(C)=C\C=C\[C@H](C)[C@H](O)[C@@H](C)[C@@H](O)[C@@H](C)[C@H](OC(C)=O)[C@@H]1C [rifampicin]
Details | AUC25, [4] | Einf, [3] | GRinf, [5] | total FIC50, [1] | total FIC90, [2]
in vitro model: acidic pH 5.7, time point: constant (~7 days, model-specific) | 0.0983 | 0.934 | -0.257 | 0.731 | –
in vitro model: acidic pH 5.7, time point: terminal (~4-5 doublings, model-specific) | 0.0798 | 0.99 | -0.249 | 0.737 | 0.559
in vitro model: intracellular J774, time point: constant = terminal | – | 0.93 | -0.121 | – | -0.0392

Details | AUC25, [4] | Einf, [3] | GRinf, [5] | total FIC50, [1] | total FIC90, [2]
in vitro model: butyrate, time point: constant (~7 days, model-specific) | 0.0847 | 0.914 | -0.0141 | 0.177 | -0.362
in vitro model: butyrate, time point: terminal (~4-5 doublings, model-specific) | 0.0706 | 0.955 | -0.0153 | 0.082 | -0.195
in vitro model: cholesterol 0.05 mM, time point: constant (~7 days, model-specific) | 0.149 | 0.744 | -0.202 | -0.0465 | –
in vitro model: cholesterol 0.05 mM, time point: terminal (~4-5 doublings, model-specific) | 0.135 | 0.937 | -0.321 | 4.18 | -0.205
in vitro model: cholesterol-high 0.2 mM, time point: constant (~7 days, model-specific) | 0.095 | 0.988 | -0.655 | 0.47 | 0.612
in vitro model: cholesterol-high 0.2 mM, time point: terminal (~4-5 doublings, model-specific) | 0.0921 | 1 | -0.646 | 0.65 | 0.504
in vitro model: dormancy (butyrate + nitrate, low O2), time point: constant (~7 days, model-specific) | 0.0823 | 0.941 | 0.177 | 0.618 | 0.781
in vitro model: dormancy (butyrate + nitrate, low O2), time point: terminal (~4-5 doublings, model-specific) | 0.0706 | 0.982 | -0.387 | 0.272 | 0.748
in vitro model: standard 7H9 glycerol, time point: constant = terminal | 0.0714 | 0.938 | -0.0288 | 0.312 | -0.401
in vitro model: valerate, time point: constant (~7 days, model-specific) | 0.0495 | 0.895 | 0.063 | 0.886 | –
in vitro model: valerate, time point: terminal (~4-5 doublings, model-specific) | 0.0389 | 0.953 | -0.012 | 0.712 | 0.323

COc1nc2ccc(Br)cc2cc1[C@@H](c1ccccc1)[C@@](O)(CCN(C)C)c1cccc2ccccc12 [bedaquiline] + CC(=O)NC[C@H]1CN(c2ccc(N3CCOCC3)c(F)c2)C(=O)O1 [linezolid] + COc1c(N2C[C@@H]3CCCN[C@@H]3C2)c(F)cc2c(=O)c(C(=O)O)cn(C3CC3)c12 [moxifloxacin]
Details | AUC25, [4] | Einf, [3] | GRinf, [5] | total FIC50, [1] | total FIC90, [2]
in vitro model: acidic pH 5.7, time point: constant (~7 days, model-specific) | 0.108 | 0.833 | -0.483 | 0.265 | –
in vitro model: acidic pH 5.7, time point: terminal (~4-5 doublings, model-specific) | 0.0466 | 0.934 | -0.2 | 0.43 | -0.0182
in vitro model: intracellular J774, time point: constant = terminal | – | 0.862 | -0.242 | – | 1.32

Details | AUC25, [4] | Einf, [3] | GRinf, [5] | total FIC50, [1] | total FIC90, [2]
in vitro model: butyrate, time point: constant (~7 days, model-specific) | 0.0949 | 0.936 | -0.0894 | 0.691 | 0.695
in vitro model: butyrate, time point: terminal (~4-5 doublings, model-specific) | 0.0643 | 0.968 | -0.0714 | 0.693 | 0.691
in vitro model: cholesterol 0.05 mM, time point: constant (~7 days, model-specific) | 0.131 | 0.758 | -0.288 | 0.224 | –
in vitro model: cholesterol 0.05 mM, time point: terminal (~4-5 doublings, model-specific) | 0.144 | 0.966 | -0.449 | -0.0261 | -0.532
in vitro model: cholesterol-high 0.2 mM, time point: constant (~7 days, model-specific) | 0.11 | 0.992 | -0.761 | 0.524 | 0.835
in vitro model: cholesterol-high 0.2 mM, time point: terminal (~4-5 doublings, model-specific) | 0.108 | 1 | -0.836 | 0.657 | 1.04
in vitro model: dormancy (butyrate + nitrate, low O2), time point: constant (~7 days, model-specific) | 0.0831 | 0.921 | 0.149 | 0.916 | 0.891
in vitro model: dormancy (butyrate + nitrate, low O2), time point: terminal (~4-5 doublings, model-specific) | 0.0363 | 0.989 | -0.0826 | 1.62 | 1.09
in vitro model: standard 7H9 glycerol, time point: constant = terminal | 0.0873 | 0.971 | -0.102 | 0.152 | 0.63
in vitro model: valerate, time point: constant (~7 days, model-specific) | 0.118 | 0.902 | -0.144 | 0.407 | –
in vitro model: valerate, time point: terminal (~4-5 doublings, model-specific) | 0.0703 | 0.947 | -0.0335 | 0.697 | 0.911

COc1nc2ccc(Br)cc2cc1[C@@H](c1ccccc1)[C@@](O)(CCN(C)C)c1cccc2ccccc12 [bedaquiline] + CC(=O)NC[C@H]1CN(c2ccc(N3CCOCC3)c(F)c2)C(=O)O1 [linezolid] + NC(=O)c1cnccn1 [pyrazinamide]
Details | AUC25, [4] | Einf, [3] | GRinf, [5] | total FIC50, [1] | total FIC90, [2]
in vitro model: acidic pH 5.7, time point: constant (~7 days, model-specific) | 0.076 | 0.806 | -0.494 | 0.125 | –
in vitro model: acidic pH 5.7, time point: terminal (~4-5 doublings, model-specific) | 0.0793 | 0.981 | -0.392 | 0.681 | 0.133
in vitro model: intracellular J774, time point: constant = terminal | – | 0.928 | -0.132 | – | 0.532

Details | AUC25, [4] | Einf, [3] | GRinf, [5] | total FIC50, [1] | total FIC90, [2]
in vitro model: butyrate, time point: constant (~7 days, model-specific) | 0.101 | 0.947 | -0.127 | -0.0949 | 0.0532
in vitro model: butyrate, time point: terminal (~4-5 doublings, model-specific) | 0.0821 | 0.975 | -0.116 | -0.166 | 0.0226
in vitro model: cholesterol 0.05 mM, time point: constant (~7 days, model-specific) | 0.142 | 0.767 | -0.355 | – | –
in vitro model: cholesterol 0.05 mM, time point: terminal (~4-5 doublings, model-specific) | 0.141 | 0.969 | -0.491 | 0.0813 | –
in vitro model: cholesterol-high 0.2 mM, time point: constant (~7 days, model-specific) | 0.109 | 0.967 | -0.577 | 0.197 | –
in vitro model: cholesterol-high 0.2 mM, time point: terminal (~4-5 doublings, model-specific) | 0.105 | 1 | -0.793 | 0.121 | 0.311
in vitro model: dormancy (butyrate + nitrate, low O2), time point: constant (~7 days, model-specific) | 0.0774 | 0.92 | 0.268 | -0.772 | -0.755
in vitro model: dormancy (butyrate + nitrate, low O2), time point: terminal (~4-5 doublings, model-specific) | 0.0469 | 0.989 | -0.0748 | -0.0476 | -0.67
in vitro model: standard 7H9 glycerol, time point: constant = terminal | 0.0828 | 0.934 | -0.00964 | 0.406 | –
in vitro model: valerate, time point: constant (~7 days, model-specific) | 0.0833 | 0.886 | -0.102 | 0.362 | –
in vitro model: valerate, time point: terminal (~4-5 doublings, model-specific) | 0.0634 | 0.942 | -0.069 | 0.455 | 0.406
